Experimental data published in US11572588B2, “Methods of evaluating treatment efficacy and/or treatment duration in mycobacterial diseases” (priority 2017, dated 2023).

Tested on: M. tuberculosis Erdman strain
Test: highly lethal in vitro drug exposure of log-phase M. tuberculosis; killing and pre-rRNA/rRNA by RNAseq and ddPCR
Format: cell-based
Settings: for pre-rRNA in M tuberculosis that survived exposure (FIG. 5, RNAseq reads): 48 h lethal exposure; for M. tuberculosis killed: 48 h of exposure, lethal dose, log phase culture; for 16S normalized counts, Transcripts per Million (TPM) / 23S normalized counts, Transcripts per Million (TPM) / ETS1 normalized counts, Transcripts per Million (TPM) / ITS1 normalized counts, Transcripts per Million (TPM) / ITS1/23S, Pre-RNA/23S (×10^4) / ETS1/23S, Pre-RNA/23S (×10^4): RNAseq; for ITS1/23S, Pre-RNA/23S (×10^4): control 466; for ETS1/23S, Pre-RNA/23S (×10^4): control 514; for effect on ETS1 and ITS1: relative to control
[1] = lethal in vitro exposure, Day 2
[2] = lethal in vitro exposure, Day 7
[3] = lethal in vitro exposure, Day 5

Row | SMILES | pre-rRNA in M tuberculosis that survived exposure (FIG. 5, RNAseq reads) | M. tuberculosis killed [%] | 16S normalized counts, Transcripts per Million (TPM) [1] | 23S normalized counts, Transcripts per Million (TPM) [1] | ETS1 normalized counts, Transcripts per Million (TPM) [1] | ITS1 normalized counts, Transcripts per Million (TPM) [1] | ITS1/23S, Pre-RNA/23S (×10^4) [1] | ETS1/23S, Pre-RNA/23S (×10^4) [1] | 16S normalized counts, Transcripts per Million (TPM) [2] | 23S normalized counts, Transcripts per Million (TPM) [2] | ETS1 normalized counts, Transcripts per Million (TPM) [2] | ITS1 normalized counts, Transcripts per Million (TPM) [2] | ITS1/23S, Pre-RNA/23S (×10^4) [2] | ETS1/23S, Pre-RNA/23S (×10^4) [2] | 16S normalized counts, Transcripts per Million (TPM) [3] | 23S normalized counts, Transcripts per Million (TPM) [3] | ETS1 normalized counts, Transcripts per Million (TPM) [3] | ITS1 normalized counts, Transcripts per Million (TPM) [3] | ITS1/23S, Pre-RNA/23S (×10^4) [3] | ETS1/23S, Pre-RNA/23S (×10^4) [3] | other results
1 | NNC(=O)c1ccncc1 [Isoniazid, isoniazid] | abundant pre-rRNA | 99.99 | 423,197 TPM | 556,210 TPM | 12,092 TPM | 8,502 TPM | 153 ×10^4 | 217 ×10^4 | 451,670 TPM | 519,579 TPM | 16,987 TPM | 11,763 TPM | 226 ×10^4 | 327 ×10^4 | – | – | – | – | – | – | decrease of ETS1/23S (lethal in vitro exposure): ~50%; decrease of ITS1/23S (lethal in vitro exposure): ~50%
2 | CO[C@H]1/C=C/O[C@@]2(C)Oc3c(C)c(O)c4c(O)c(c(/C=N/N5CCN(C)CC5)c(O)c4c3C2=O)NC(=O)/C(C)=C\C=C\[C@H](C)[C@H](O)[C@@H](C)[C@@H](O)[C@@H](C)[C@H](OC(C)=O)[C@@H]1C [Rifampin, rifampin] | negligible pre-rRNA | 99.99 | 375,111 TPM | 624,759 TPM | 58 TPM | 72 TPM | 1.15 ×10^4 | 0.92 ×10^4 | – | – | – | – | – | – | 306,538 TPM | 693,196 TPM | 30 TPM | 235 TPM | 3.39 ×10^4 | 0.44 ×10^4 | decrease of ETS1/23S relative to control (lethal in vitro exposure): > 100 fold; decrease of ITS1/23S relative to control (lethal in vitro exposure): > 100 fold; effect on ETS1 and ITS1 (lethal in vitro exposure): nearly complete abrogated ETS1 and ITS1
3 | [H]/N=C(/N)N[C@H]1[C@H](O)[C@@H](O)[C@H](O[C@@H]2O[C@@H](C)[C@](O)(C=O)[C@H]2O[C@@H]2O[C@@H](CO)[C@H](O)[C@@H](O)[C@@H]2NC)[C@@H](N/C(N)=N\[H])[C@@H]1O [Streptomycin, streptomycin] | abundant pre-rRNA | 99.99 | 453,930 TPM | 430,311 TPM | 78,749 TPM | 37,010 TPM | 860 ×10^4 | 1,830 ×10^4 | – | – | – | – | – | – | 406,987 TPM | 488,000 TPM | 72,994 TPM | 32,019 TPM | 656 ×10^4 | 1,496 ×10^4 | effect on ETS1 and ITS1 (lethal in vitro exposure): increased ETS1 and ITS1
4 | COc1nc2ccc(Br)cc2cc1[C@@H](c1ccccc1)[C@@](O)(CCN(C)C)c1cccc2ccccc12 [Bedaquiline, bedaquiline] | negligible pre-rRNA | ~99.9 | 343,978 TPM | 654,924 TPM | 548 TPM | 551 TPM | 8.4 ×10^4 | 8.4 ×10^4 | 208,644 TPM | 788,154 TPM | 1,778 TPM | 1,425 TPM | 18.1 ×10^4 | 22.6 ×10^4 | – | – | – | – | – | – | decrease of ETS1/23S relative to control (lethal in vitro exposure): > 20 fold; decrease of ITS1/23S relative to control (lethal in vitro exposure): > 20 fold
